Conditions: 101.33 kPa, Liquid; for speed of sound: Sing-around technique in a fixed-path interferometer; for mass density: Vibrating tube method

CC(=O)[O-].C[NH2+]CCO [N-methyl-2-hydroxyethylammonium acetate]
Conditions	mass density [kg/m3]	speed of sound [m/s]	viscosity [mPa·s]
293.15 K	1103.76	1807.5	–
293.4 K	1103.61	1806.9	–
293.65 K	1103.46	1806.3	–
293.9 K	1103.32	1805.6	–
294.15 K	1103.17	1805	–
294.4 K	1103.02	1804.3	–
294.65 K	1102.88	1803.7	–
294.9 K	1102.73	1803.1	–
295.15 K	1102.59	1802.4	–
295.4 K	1102.44	1801.8	–
295.65 K	1102.29	1801.2	–
295.9 K	1102.14	1800.5	–
296.15 K	1102	1799.9	–
296.4 K	1101.85	1799.2	–
296.65 K	1101.7	1798.6	–
296.9 K	1101.56	1798	–
297.15 K	1101.41	1797.3	–
297.4 K	1101.26	1796.7	–
297.65 K	1101.11	1796	–
297.9 K	1100.97	1795.4	–
298.15 K	1100.83	1794.8	106.06
298.4 K	1100.67	1794.1	–
298.65 K	1100.53	1793.5	–
298.9 K	1100.38	1792.9	–
299.15 K	1100.23	1792.2	–
299.4 K	1100.08	1791.6	–
299.65 K	1099.93	1791	–
299.9 K	1099.78	1790.3	–
300.15 K	1099.63	1789.7	–
300.4 K	1099.48	1789	–
300.65 K	1099.34	1788.4	–
300.9 K	1099.19	1787.8	–
301.15 K	1099.04	1787.1	–
301.4 K	1098.89	1786.5	–
301.65 K	1098.74	1785.8	–
301.9 K	1098.59	1785.2	–
302.15 K	1098.44	1784.6	–
302.4 K	1098.29	1783.9	–
302.65 K	1098.14	1783.3	–
302.9 K	1097.99	1782.6	–
303.15 K	1097.84	1782	78.7
303.4 K	1097.69	1781.3	–
303.65 K	1097.54	1780.7	–
303.9 K	1097.4	1780.2	–
304.15 K	1097.25	1779.6	–
304.4 K	1097.1	1779	–
304.65 K	1096.95	1778.3	–
304.91 K	1096.79	1777.7	–
305.15 K	1096.64	1777	–
305.4 K	1096.49	1776.4	–
305.65 K	1096.34	1775.7	–
305.9 K	1096.19	1775.1	–
306.15 K	1096.04	1774.5	–
306.4 K	1095.89	1773.8	–
306.65 K	1095.74	1773.2	–
306.9 K	1095.59	1772.5	–
307.15 K	1095.44	1771.9	–
307.4 K	1095.29	1771.3	–
307.65 K	1095.14	1770.6	–
307.9 K	1094.98	1770	–
308.15 K	–	–	60.03

Reference: the NIST ThermoML archive (doi:10.1021/je900550v)
